Measured values as given in patent US20260347373A1, “HETEROCYCLIC COMPOUNDS, COMPOSITIONS THEREOF, AND METHODS OF TREATMENT THEREWITH” (BeOne Medicines I GmbH, priority 2023, published 2026).

Key:
[1] = biological target: WT KRAS (Homo sapiens, UniProt P01116); assay: KRAS WT Probe Displacement Assay (TR-FRET, GDP-loaded); assay type: binding; details: KRAS WT, read-out: KRAS^WT Probe Displacement Assay IC50
Description: (§1) The synthetic routes of probe 1 and 2, which have been disclosed in PCT/CN2022/070676, are hereby incorporated herein.

[2] = biological target: KRAS G12D (Homo sapiens, UniProt P01116, G12D); assay: KRAS G12D Probe Displacement Assay (TR-FRET, GDP-loaded); assay type: binding; details: KRAS G12D, read-out: KRAS^G12D Probe Displacement Assay IC50
Description: as §1

Sequence of WT KRAS (P01116 1-188 isoform P01116-2): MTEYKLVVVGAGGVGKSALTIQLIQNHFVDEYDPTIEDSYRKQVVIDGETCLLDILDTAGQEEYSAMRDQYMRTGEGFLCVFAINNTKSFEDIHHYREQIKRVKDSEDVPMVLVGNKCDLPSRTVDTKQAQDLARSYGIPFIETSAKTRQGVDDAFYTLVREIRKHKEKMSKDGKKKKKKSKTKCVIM
Sequence of KRAS G12D (P01116 1-188 isoform P01116-2 G12D): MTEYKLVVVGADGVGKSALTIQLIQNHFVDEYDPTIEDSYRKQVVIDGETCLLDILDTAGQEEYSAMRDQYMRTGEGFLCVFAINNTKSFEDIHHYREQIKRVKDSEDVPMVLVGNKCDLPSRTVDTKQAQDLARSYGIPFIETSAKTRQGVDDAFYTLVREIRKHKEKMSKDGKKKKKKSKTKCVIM

Row | Compound | IC50 [1] [nM] | IC50 [2] [nM]
1 | Cc1cc(N)cc(-c2nc3c4c(nc(OC[C@]56CCCN5CC(F)(F)C6)nc4c2F)N2C[C@H]4CC[C@H](N4)[C@H]2CCO3)c1C(F)(F)F [Example 34, 3-((6aR,7S,10R)-13-(((R)-2,2-difluorotetrahydro-1H-pyrrolizin-7a(5H)-yl)methoxy)-1-fluoro-5,6,6a,7,8,9,10,11-octahydro-4-oxa-3,11a,12,14,15-pentaaza-7,10-methanocyclohepta[4,5]cycloocta [1,2,3-de]naphthalen-2-yl)-5-methyl-4-(trifluoromethyl)aniline] | 3 to 1000 | 0.3 to 3
2 | Cc1cc(N)cc(-c2nc3c4c(nc(OC[C@]56C[C@H](F)CN5C[C@H](F)C6)nc4c2F)N2C[C@H]4CC[C@H](N4)[C@H]2CCO3)c1C(F)(F)F [Example 35] | 3 to 1000 | 0.3 to 3
3 | Cc1cc(N)cc(-c2nc3c4c(nc(OCC56C[C@@H](F)CN5C[C@H](F)C6)nc4c2F)N2C[C@H]4CC[C@H](N4)[C@H]2CCO3)c1C(F)(F)F [Example 36, 3-((6aR,7S,10R)-13-(((2R,6R)-2,6-difluorotetrahydro-1H-pyrrolizin-7a(5H)-yl)methoxy)-1-fluoro-5,6,6a,7,8,9,10,11-octahydro-4-oxa-3,11a,12,14,15-pentaaza-7,10-methanocyclohepta[4,5]cycloocta [1,2,3-de]naphthalen-2-yl)-5-methyl-4-(trifluoromethyl)aniline] | 3 to 1000 | < 0.3
4 | Cc1cc(N)cc(-c2nc3c4c(nc(O[C@@H](C)[C@@H]5CCCN5C)nc4c2F)N2C[C@H]4CC[C@H](N4)[C@H]2CCO3)c1C(F)(F)F [Example 37, 3-((6aR,7S,10R)-1-fluoro-13-((S)-1-((S)-1-methylpyrrolidin-2-yl)ethoxy)-5,6,6a,7,8,9,10,11-octahydro-4-oxa-3,11a,12,14,15-pentaaza-7,10-methanocyclohepta[4,5]cycloocta [1,2,3-de]naphthalen-2-yl)-5-methyl-4-(trifluoromethyl)aniline] | 3 to 1000 | < 0.3
5 | Cc1cc(N)cc(-c2nc3c4c(nc(O[C@H](C)[C@@H]5CCCN5C)nc4c2F)N2C[C@H]4CC[C@H](N4)[C@H]2CCO3)c1C(F)(F)F [Example 38, 3-((6aR,7S,10R)-1-fluoro-13-((R)-1-((S)-1-methylpyrrolidin-2-yl)ethoxy)-5,6,6a,7,8,9,10,11-octahydro-4-oxa-3,11a,12,14,15-pentaaza-7,10-methanocyclohepta[4,5]cycloocta [1,2,3-de]naphthalen-2-yl)-5-methyl-4-(trifluoromethyl)aniline] | 3 to 1000 | 0.3 to 3
6 | Cc1cc(N)cc(-c2nc3c4c(nc(OC[C@H]5COC[C@H]5N(C)C)nc4c2F)N2C[C@H]4CC[C@H](N4)[C@H]2CCO3)c1C(F)(F)F [Example 41, (3S,4R)-4-((((6aR,7S,10R)-2-(5-amino-3-methyl-2-(trifluoromethyl)phenyl)-1-fluoro-5,6,6a,7,8,9,10,11-octahydro-4-oxa-3,11a,12,14,15-pentaaza-7,10-methanocyclohepta[4,5]cycloocta [1,2,3-de]naphthalen-13-yl)oxy)methyl)-N,N-dimethyltetrahydrofuran-3-amine] | 3 to 1000 | 0.3 to 3
7 | CN(C)C[C@]1(COc2nc3c4c(nc(-c5cc(N)cc(Cl)c5C(F)(F)F)c(F)c4n2)OCC[C@@H]2[C@@H]4CC[C@H](CN32)N4)CC1(F)F [Example 44, 3-chloro-5-((6aR,7S,10R)-13-(((S)-1-((dimethylamino)methyl)-2,2-difluorocyclopropyl)methoxy)-1-fluoro-5,6,6a,7,8,9,10,11-octahydro-4-oxa-3,11a,12,14,15-pentaaza-7,10-methanocyclohepta[4,5]cycloocta [1,2,3-de]naphthalen-2-yl)-4-(trifluoromethyl)aniline] | 0.3 to 3 | < 0.3
8 | CN(C)C[C@@]1(COc2nc3c4c(nc(-c5cc(N)cc(Cl)c5C(F)(F)F)c(F)c4n2)OCC[C@@H]2[C@@H]4CC[C@H](CN32)N4)CC1(F)F [Example 45, 3-chloro-5-((6aR,7S,10R)-13-(((R)-1-((dimethylamino)methyl)-2,2-difluorocyclopropyl)methoxy)-1-fluoro-5,6,6a,7,8,9,10,11-octahydro-4-oxa-3,11a,12,14,15-pentaaza-7,10-methanocyclohepta[4,5]cycloocta[1,2,3-de]naphthalen-2-yl)-4-(trifluoromethyl)aniline] | 0.3 to 3 | < 0.3
9 | [2H]C([2H])([2H])c1cc(N)cc(-c2nc3c4c(nc(OC[C@@]5(CN(C)C)CC5(F)F)nc4c2F)N2C[C@H]4CC[C@H](N4)[C@H]2CCO3)c1C(F)(F)F [Example 46, 3-((6aR,7S,10R)-13-(((S)-1-((dimethylamino)methyl)-2,2-difluorocyclopropyl)methoxy)-1-fluoro-5,6,6a,7,8,9,10,11-octahydro-4-oxa-3,11a,12,14,15-pentaaza-7,10-methanocyclohepta[4,5]cycloocta [1,2,3-de]naphthalen-2-yl)-5-(methyl-d3)-4-(trifluoromethyl)aniline] | 3 to 1000 | < 0.3
10 | [2H]C([2H])([2H])c1cc(N)cc(-c2nc3c4c(nc(OC[C@]5(CN(C)C)CC5(F)F)nc4c2F)N2C[C@H]4CC[C@H](N4)[C@H]2CCO3)c1C(F)(F)F [Example 47, 3-((6aR,7S,10R)-13-(((R)-1-((dimethylamino)methyl)-2,2-difluorocyclopropyl)methoxy)-1-fluoro-5,6,6a,7,8,9,10,11-octahydro-4-oxa-3,11a,12,14,15-pentaaza-7,10-methanocyclohepta[4,5]cycloocta [1,2,3-de]naphthalen-2-yl)-5-(methyl-d3)-4-(trifluoromethyl)aniline] | 3 to 1000 | < 0.3
11 | Cc1nc(N)cc(-c2nc3c4c(nc(OC[C@]5(CN(C)C)CC5(F)F)nc4c2F)N2C[C@H]4CC[C@H](N4)[C@H]2CCO3)c1C(F)(F)F [Example 48, 4-((6aR,7S,10R)-13-(((R)-1-((dimethylamino)methyl)-2,2-difluorocyclopropyl)methoxy)-1-fluoro-5,6,6a,7,8,9,10,11-octahydro-4-oxa-3,11a,12,14,15-pentaaza-7,10-methanocyclohepta[4,5]cycloocta [1,2,3-de]naphthalen-2-yl)-6-methyl-5-(trifluoromethyl)pyridin-2-amine] | 3 to 1000 | < 0.3
12 | Cc1cc(N)cc(-c2nc3c4c(nc(OCC5(CN(C)C)CC5)nc4c2F)N2C[C@H]4CC[C@H](N4)[C@H]2CCO3)c1C(F)(F)F [Example 56, 3-((6aR,7S,10R)-13-((1-((dimethylamino)methyl)cyclopropyl)methoxy)-1-fluoro-5,6,6a,7,8,9,10,11-octahydro-4-oxa-3,11a,12,14,15-pentaaza-7,10-methanocyclohepta[4,5]cycloocta [1,2,3-de]naphthalen-2-yl)-5-methyl-4-(trifluoromethyl)aniline] | 3 to 1000 | < 0.3
13 | Cc1cc(N)cc(-c2nc3c4c(nc(OCC5(CN6C[C@@H](C)O[C@@H](C)C6)CC5)nc4c2F)N2C[C@H]4CC[C@H](N4)[C@H]2CCO3)c1C(F)(F)F [Example 64, 3-((6aR,7S,10R)-13-((1-(((2S,6R)-2,6-dimethylmorpholino)methyl)cyclopropyl)methoxy)-1-fluoro-5,6,6a,7,8,9,10,11-octahydro-4-oxa-3,11a,12,14,15-pentaaza-7,10-methanocyclohepta[4,5]cycloocta [1,2,3-de]naphthalen-2-yl)-5-methyl-4-(trifluoromethyl)aniline] | 0.3 to 3 | < 0.3
14 | Cc1cc(N)cc(-c2nc3c4c(nc(OCC5(CN6C[C@H]7C[C@@H]6CO7)CC5)nc4c2F)N2C[C@H]4CC[C@H](N4)[C@H]2CCO3)c1C(F)(F)F [Example 65, 3-((6aR,7S,10R)-13-((1-(((1R,4R)-2-oxa-5-azabicyclo[2.2.1]heptan-5-yl)methyl)cyclopropyl)methoxy)-1-fluoro-5,6,6a,7,8,9,10,11-octahydro-4-oxa-3,11a,12,14,15-pentaaza-7,10-methanocyclohepta[4,5]cycloocta [1,2,3-de]naphthalen-2-yl)-5-methyl-4-(trifluoromethyl)aniline] | 3 to 1000 | < 0.3
15 | Cc1cc(N)cc(-c2nc3c4c(nc(OCC5(CN6CCC(F)CC6)CC5)nc4c2F)N2C[C@H]4CC[C@H](N4)[C@H]2CCO3)c1C(F)(F)F [Example 66, 3-((6aR,7S,10R)-1-fluoro-13-((1-((4-fluoropiperidin-1-yl)methyl)cyclopropyl)methoxy)-5,6,6a,7,8,9,10,11-octahydro-4-oxa-3,11a,12,14,15-pentaaza-7,10-methanocyclohepta[4,5]cycloocta [1,2,3-de]naphthalen-2-yl)-5-methyl-4-(trifluoromethyl)aniline] | 3 to 1000 | < 0.3
16 | Cc1cc(N)cc(-c2nc3c4c(nc(OCC5(CN6CCOCC6)CC5)nc4c2F)N2C[C@H]4CC[C@H](N4)[C@H]2CCO3)c1C(F)(F)F [Example 67, 3-((6aR,7S,10R)-1-fluoro-13-((1-(morpholinomethyl)cyclopropyl)methoxy)-5,6,6a,7,8,9,10,11-octahydro-4-oxa-3,11a,12,14,15-pentaaza-7,10-methanocyclohepta[4,5]cycloocta [1,2,3-de]naphthalen-2-yl)-5-methyl-4-(trifluoromethyl)aniline] | 3 to 1000 | < 0.3
17 | Cc1cc(N)cc(-c2nc3c4c(nc(OCC5(CN6C[C@@H]7C[C@H]6CO7)CC5)nc4c2F)N2C[C@H]4CC[C@H](N4)[C@H]2CCO3)c1C(F)(F)F [Example 68, 3-((6aR,7S,10R)-13-((1-(((1S,4S)-2-oxa-5-azabicyclo[2.2.1]heptan-5-yl)methyl)cyclopropyl)methoxy)-1-fluoro-5,6,6a,7,8,9,10,11-octahydro-4-oxa-3,11a,12,14,15-pentaaza-7,10-methanocyclohepta[4,5]cycloocta [1,2,3-de]naphthalen-2-yl)-5-methyl-4-(trifluoromethyl)aniline] | 3 to 1000 | < 0.3
